Reference: US8980224B2, “Method of cardiac imaging” (GE Healthcare AS, priority 2004, dated 2015)

Key:
[1] = T1 relaxation of 13C-pyruvate in human full blood; format: physicochemical; details: human full blood at 37° C.
Description: The amount of alanine, bicarbonate and lactate is dependent on the metabolic status of the myocardial tissue under investigation.

[2] = 13C polarisation obtained by the DNP method, assessed with 13C-NMR; format: physicochemical; details: 1.2 K, 3.35 T
Description: A 20 mM solution was prepared by dissolving 5.0 mg of the radical of Example 1 in ^13CI-pyruvic acid (164 μl). The sample was mixed to homogeneity and an aliquot of the solution (41 mg) was placed in a sample cup and inserted in the DNP polariser.
The sample was polarised under DNP conditions at 1.2 K in a 3.35 T magnetic field under irradiation with microwave (93.950 GHz). After 2 hours the polarisation was stopped and the sample was dissolved using a dissolution device according to WO-A-02/37132 in an aqueous solution of sodium hydroxide and tris(hydroxymethyl)aminomethane (TRIS) to provide a neutral solution of hyperpolarised sodium ^13C1-pyruvate. The dissolved sample was rapidly analysed with ^13C-NMR to assess the polarisation and a 19.0% ^13C polarisation was obtained.
A 15 mM solution was prepared by dissolving the radical of Example 1 (209.1 mg) in a mixture of ^13C1-pyruvic acid (553 mg) and unlabelled pyruvic acid (10.505 g). The sample was mixed to homogeneity and an aliquot of the solution (2.015 g) was placed in a sample cup and inserted in the DNP polariser.
The sample was polarised under DNP conditions at 1.2 K in a 3.35 T magnetic field under irradiation with microwave (93.950 GHz). […] The filtered solution was rapidly analysed with ^13C-NMR to assess the polarisation, 16.5% ^13C polarisation was obtained. The residual radical concentration was subsequently analysed with a UV spectrophotometer meter at 469 nm and was determined to be below the detection limit of 0.1 μM.
A 20 mM solution was prepared by dissolving Tris(8-carboxy-2,2,6,6-tetra(hydroxyethoxy)methyl-benzo[1,2-d:4,5-d′]-bis-(1,3)-dithiole-4-yl)methyl sodium salt in ^13C1-pyruvic acid (83.1 mg). […] The DNP enhancement was calculated from a measurement of the thermal equilibrium ^13C-NMR signal and the enhanced NMR signal. […]

myocardial tissue = assay: Cardiac 13C-MR imaging in the pig before and after occlusion of the circumflexa; format: in vivo; details: 0.22 mmol/kg i.v., imaging 30 s after start of injection
Description: The pig (25 kg) was anaesthetised using a cocktail containing isotonic NaCl (26 vol %), Ketalar (50 mg/ml) (Pfizer AB) (42 vol %), Norcuron (10 mg+5 ml sterile water) (Organon) (21 vol %) and Midazolam (5 mg/ml) (Pharma Hameln) (11% vol) administered using an infusion pump at a rate of 0.6 ml/min.
After the first injection with ^13C-pyruvate the pig was removed from the MR scanner. Under X-ray guidance, a balloon catheter was inserted into the arteria coronaria sinistra and the circumflexa was blocked for a 15 minute period. During the whole operation ECG and blood pressure were measured. 90 Minutes after the end of the ischemic period, the pig was imaged again and ^13C-images were acquired from (about) the same location as were the control measurement was carried out.
The pig was positioned in a pig MR coil (Rapid Biomedical, Germany) and imaged using a standard clinical cardiac proton MR imaging sequence library to get anatomical information and to get the short axis view orientation of the myocardium (see proton reference image in the figures to see an example of short axis view).
Based on the proton frequency found by the MR system the MR frequency for ^13C1-alanine was calculated according to the following equation: Frequency ^13C1-alanine=0.25144×[(system frequency proton×1.00021)−0.000397708]
The frequency calculated positioned the MR signal arising from ^13C1-alanine on resonance with ^13C1-lactate on the left and ^13C1-pyruvate and ^13C1-bicarbonate resonating on the right of ^13C1-alanine. An unlocalised MR spectroscopy sequence was run to ensure that the ^13C-MR coil and the system MR frequency had been set up correctly. The ^13C-image location was positioned to cover the myocardium (short axis view) (slice thickness 20 mm, in plane pixel size 7.5×7.5 mm^2). In the reconstruction phase, the image data was zero-filled to result in 3.75×3.75×20 mm^3 resolution. 16 ml of ^13C1-pyruvate (327 mM) was injected (0.22 mmol/kg) during a period of 12 s (1.3 ml/s) i.v. into the front leg and 30 s after the start of the injection (i.e. 18 s after finishing the injection), the chemical shift ^13C-MR sequence was started.
In the reconstruction phase, the matrix was zero-filled to 32×32, a mathematical operation that helps to improve the spatial resolution. The dataset was analysed on the MRI scanner with software provided by the manufacturer. The results are metabolic images for ^13C-pyruvate, ^13C-alanine, ^13C-lactate and ^13C-bicarbonate.

[3] = 90 minutes after 15 minute occlusion of the circumflexa
[4] = before vs 90 minutes after 15 minute occlusion

| SMILES | T1 relaxation [1] | 13C polarisation ([2]; Example 2: 20 mM radical of Example 1 in 13C1-pyruvic acid, 93.950 GHz, 2 hours, dissolved in NaOH/TRIS, liquid 13C-NMR) | 13C polarisation ([2]; Example 3: 15 mM radical of Example 1, 4 hours, dissolved in NaOH/TRIS, 0.5 M pyruvate, radical removed on C18 column, filtered solution) | 13C-bicarbonate signal in myocardial tissue at risk (compared to the control) (myocardial tissue; [3]) | 13C-lactate signal in myocardial tissue at risk (myocardial tissue; [3]) | 13C-alanine image before and after the ischemic period (myocardial tissue; [4]) | 13C-pyruvate image before and after the ischemic period (myocardial tissue; [4]) | 13C polarisation ([2]; Example 4: 20 mM tris(8-carboxy-2,2,6,6-tetra(hydroxyethoxy)methyl-benzo-bis-dithiole-4-yl)methyl sodium salt, calculated from thermal equilibrium and enhanced NMR signal) |
| --- | --- | --- | --- | --- | --- | --- | --- | --- |
| CC(=O)C(=O)O [^13C-pyruvate, sodium ^13C1-pyruvate] | about 42 s | 19.0% | 16.5% | strongly reduced | positive contrast | No difference | No difference | – |
| CC(=O)[13C](=O)O [^13C1-pyruvic acid] | – | – | – | – | – | – | – | 16% |
